Experimental findings from ChEMBL document CHEMBL4765306, “Design, synthesis and biological evaluation of novel naturally-inspired multifunctional molecules for the management of Alzheimer's disease” (Eur J Med Chem, 2020) are described below.

Calls of active or inactive are those of the source. No cut-off for these calls is given here.

Series [1] is filed under the species Homo sapiens. As to the kind of experiment: Disruption of human amyloid beta 1 to 42 assessed as effect on amyloid beta 1 to 42 morphology at 1.58 uM incubated for 10 days by atomic force microscopic analysis. To be noted: time 10.0 day.
Series [2] deals with Mus musculus. As to the kind of experiment: Memory enhancement effect in scopolamine-induced Swiss albino mouse model of amnesia assessed as effect on total arm entries at 6.25 to 25 mg/kg, po administered for 7 days and observed after 30 mins before scopolamine treatment and measured after 15 mins by Y-maze test. In kind it is functional, organism-based. The following applies: dose 6.25-25 mg/kg, time 7.0 day.

Series [3] is described as follows: Acute toxicity in Swiss albino mouse assessed as effect on water consumption at 500 mg/kg, po administered once and observed for 14 days. In kind it is organism-based. To be noted: in vivo, 336 h, time 14 day.
Series [4] in a line: Antioxidant activity assessed as DPPH radical scavenging activity incubated for 25 mins in shaker. The series is classed as functional. On the technique in general: Loss of DPPH colour is used to gauge radical scavenging.
Series [5] in a line: Acute toxicity in Swiss albino mouse assessed as liver damage at 500 mg/kg, po administered once and observed after 14 days by microscopic analysis. The following applies: in vivo, 336 h, time 14 day. In kind it is organism-based.
Series [6] addresses Cholinesterase (Equus caballus) (UniProt P81908). In words: Mixed-type inhibition of […] equine serum BuChE at 7.5 to 30 uM using butyryl thiocholine iodide as substrate preincubated for 30 mins followed by substrate addition and measured after 30 mins by Lineweaver-burk plot analysis. In kind it is cell-free. The following applies: dose 7.5-30 µM, time 60.0 min.
Series [7] in a line: Acute toxicity in Swiss albino mouse assessed as effect on food consumption at 500 mg/kg, po administered once and observed for 14 days. In kind it is organism-based. To be noted: in vivo, 336 h, time 14 day.
Series [8] in a line: Acute toxicity in Swiss albino mouse assessed as effect on body weight at 500 mg/kg, po administered once and observed for 14 days. In kind it is organism-based. To be noted: in vivo, 336 h, time 14 day.
The test system of series [9] is Mus musculus. As to the kind of experiment: Ex vivo antioxidant activity in brain of scopolamine-induced Swiss albino mouse model of amnesia assessed as decrease in MDA level at 6.25 to 25 mg/kg, po administered for 7 days and observed after 30 mins before scopolamine treatment and measured after 15 mins. In kind it is functional, organism-based. To be noted: dose 6.25-25 mg/kg, time 7.0 day.

A short description of series [10]: Metal chelating activity assessed as Fe3+-compound complex formation at 300 uM measured for 30 mins by MS-MS analysis.
The nature of series [11]: Metal chelating activity assessed as Fe3+-compound complex formation at 300 uM measured for 30 mins by UV-Visible spectrophotometric method.
Series [12] deals with T1, Acetylcholinesterase (Homo sapiens, UniProt P22303). In words: Inhibition of recombinant human erythrocyte AChE using acetylthiocholine iodide as substrate preincubated for 30 mins followed by substrate addition and measured after 30 mins by spectrophotometry based Ellman's method. (In Ellman's method for cholinesterases, released thiocholine reacts with DTNB.)
T1 sequence (P22303 whole entry): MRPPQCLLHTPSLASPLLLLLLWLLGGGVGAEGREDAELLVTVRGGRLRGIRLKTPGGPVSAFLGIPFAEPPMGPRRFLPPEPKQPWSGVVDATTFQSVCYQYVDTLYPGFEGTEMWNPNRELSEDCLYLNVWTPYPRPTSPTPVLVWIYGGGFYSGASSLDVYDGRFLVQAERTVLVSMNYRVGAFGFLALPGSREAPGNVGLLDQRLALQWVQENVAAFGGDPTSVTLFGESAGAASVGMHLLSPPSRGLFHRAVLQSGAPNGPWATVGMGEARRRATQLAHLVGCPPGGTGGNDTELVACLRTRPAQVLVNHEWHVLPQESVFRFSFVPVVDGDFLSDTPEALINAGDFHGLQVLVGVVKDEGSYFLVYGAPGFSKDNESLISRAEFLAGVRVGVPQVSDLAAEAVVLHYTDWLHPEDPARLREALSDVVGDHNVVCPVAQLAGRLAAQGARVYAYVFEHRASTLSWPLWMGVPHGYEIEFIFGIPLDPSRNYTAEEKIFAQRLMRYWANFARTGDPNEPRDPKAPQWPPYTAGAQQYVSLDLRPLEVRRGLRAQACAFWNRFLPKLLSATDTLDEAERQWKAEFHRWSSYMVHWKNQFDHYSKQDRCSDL
The target in series [13] is Cholinesterase (Equus caballus) (UniProt P81908). As to the kind of experiment: Inhibition of […] equine serum BuChE at 20 uM using butyryl thiocholine iodide as substrate preincubated for 30 mins followed by substrate addition and measured after 30 mins by spectrophotometry based Ellman's method relative to control. The following applies: time 60.0 min. In kind it is cell-free.
Sequence of Cholinesterase (Equus caballus) (P81908 whole entry): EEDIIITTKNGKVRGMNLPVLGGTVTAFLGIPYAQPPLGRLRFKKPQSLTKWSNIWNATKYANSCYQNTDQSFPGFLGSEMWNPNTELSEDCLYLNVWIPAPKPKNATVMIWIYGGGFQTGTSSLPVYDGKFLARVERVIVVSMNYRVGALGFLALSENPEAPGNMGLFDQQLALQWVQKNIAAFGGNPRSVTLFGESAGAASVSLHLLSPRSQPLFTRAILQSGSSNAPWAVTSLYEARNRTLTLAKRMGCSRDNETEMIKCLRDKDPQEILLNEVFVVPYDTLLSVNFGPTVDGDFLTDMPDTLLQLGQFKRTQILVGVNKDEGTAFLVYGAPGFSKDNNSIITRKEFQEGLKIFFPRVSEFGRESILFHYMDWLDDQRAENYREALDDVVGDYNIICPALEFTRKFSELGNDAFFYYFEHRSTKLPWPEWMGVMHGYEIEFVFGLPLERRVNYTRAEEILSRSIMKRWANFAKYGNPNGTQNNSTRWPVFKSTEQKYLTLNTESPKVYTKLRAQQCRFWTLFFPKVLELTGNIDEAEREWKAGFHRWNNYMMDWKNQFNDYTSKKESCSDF

A short description of series [14]: Cytotoxicity against human SH-SY5Y cells assessed as reduction in cell viability at 20 uM incubated for 24 hrs by MTT assay. The series is classed as cell-based. The following applies: read-out: INH.
For series [15], the system named is Mus musculus. As to the kind of experiment: Ex vivo antioxidant activity in brain of scopolamine-induced Swiss albino mouse model of amnesia assessed as increase in SOD level at 6.25 to 25 mg/kg, po administered for 7 days and observed after 30 mins before scopolamine treatment and measured after 15 mins. The series is classed as functional, organism-based. To be noted: dose 6.25-25 mg/kg, time 7.0 day.

The nature of series [16]: Antioxidant activity assessed as DPPH radical scavenging activity at 20 uM incubated for 25 mins in shaker relative to control. The series is classed as functional.
Series [17] is described as follows: Acute toxicity in Swiss albino mouse assessed as organism death at 500 mg/kg, po administered once and observed for 14 days. The following applies: in vivo, 336 h, time 14 day. In kind it is organism-based.
In series [18] the target is T1, Acetylcholinesterase. As to the kind of experiment: Non-competitive inhibition of recombinant human erythrocyte AChE at 1 to 10 uM using acetylthiocholine iodide as substrate preincubated for 30 mins followed by substrate addition and measured after 30 mins by Lineweaver-burk plot analysis. To be noted: dose 1-10 µM, time 60.0 min.
For series [19], the system named is Mus musculus. In words: Ex vivo inhibition of AChE in brain of scopolamine-induced Swiss albino mouse model of amnesia at 6.25 to 25 mg/kg, po administered for 7 days and observed after 30 mins before scopolamine treatment and measured after 15 mins using acetylthiocholine iodide as substrate by Ellman's method. In kind it is functional, organism-based. To be noted: dose 6.25-25 mg/kg, time 7.0 day.

Series [20] relates to Mus musculus. In words: Ex vivo antioxidant activity in brain of scopolamine-induced Swiss albino mouse model of amnesia assessed as increase in CAT level at 6.25 to 25 mg/kg, po administered for 7 days and observed after 30 mins before scopolamine treatment and measured after 15 mins. In kind it is functional, organism-based. The following applies: dose 6.25-25 mg/kg, time 7.0 day.

The subject of series [21] is Mus musculus. As to the kind of experiment: Ex vivo inhibition of BChE in brain of scopolamine-induced Swiss albino mouse model of amnesia at 6.25 to 25 mg/kg, po administered for 7 days and observed after 30 mins before scopolamine treatment and measured after 15 mins using butyryl thiocholine iodide as substrate by Ellman's method. In kind it is functional, organism-based. The following applies: dose 6.25-25 mg/kg, time 7.0 day.

The nature of series [22]: Acute toxicity in Swiss albino mouse assessed as abnormal behaviour at 500 mg/kg, po administered once and observed for 14 days. In kind it is organism-based. The following applies: in vivo, 336 h, time 14 day.
Series [23] deals with Cholinesterase (Equus caballus, UniProt P81908). In words: Inhibition of […] equine serum BuChE using butyryl thiocholine iodide as substrate preincubated for 30 mins followed by substrate addition and measured after 30 mins by spectrophotometry based Ellman's method. In kind it is cell-free.
Sequence of Cholinesterase (P81908 whole entry): as above
Series [24] deals with Mus musculus. In words: Memory enhancement effect in scopolamine-induced Swiss albino mouse model of amnesia assessed as increase in spontaneous alteration at 6.25 to 25 mg/kg, po administered for 7 days and observed after 30 mins before scopolamine treatment and measured after 15 mins by Y-maze test. To be noted: dose 6.25-25 mg/kg, time 7.0 day. In kind it is functional, organism-based.

Consider `COc1cc(/C=C/C(=O)NCC(=O)Nc2ccc3[nH]ccc3c2)ccc1O`, for which the outcome in series [1], in [2], in [9], in series [10], in series [11] and in [15] was Active. Besides, the result in series [19], in series [20], in series [21] and in series [24] was Active. The Activity result in series [3] is “Non-Toxic”; in [5], “Non-Toxic”; in [7], “Non-Toxic”; in series [8], “Non-Toxic”; in series [16] it was 31.3%; in [17], “Non-Toxic”. Moreover, the Activity entry in [22] was “Non-Toxic”. Moreover, the IC50 was 57.4 µM in series [4], 5.74 µM in series [12] and 14 µM in [23]. The inhibition entry in series [6] and in [18] was “Active” in each case. Also, the inhibition in series [13] was 58.7%. Further, in series [14], the cytotoxicity at 24 h, 20 µM was 4.39%.

By IC50 is commonly meant the concentration at which inhibition is half-maximal. The term inhibition denotes how much of the control response was suppressed.
